According to ChEMBL document CHEMBL1201862, “PubChem BioAssay data set” (2004):
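96-well plates; 48 h exposure; 5 concentrations. Endpoints by linear interpolation between flanking doses. Not reached: highest tested concentration assigned. GI50 = concentration required for 50% inhibition of growth.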 Activity calls are given as the source filed them. Rule as the data show it: active = GI50 up to about 1.1 µM and inactive = higher.

Legend:
Assay in all cases: inhibition of tumour cell growth, NCI panel, 48 h
DMS-273 = test system: DMS-273
SK-OV-3 = test system: SK-OV-3
HOP-92 = test system: HOP-92
NCI-H23 = test system: NCI-H23
SK-MEL-28 = test system: SK-MEL-28
MOLT-4 = test system: MOLT-4
RXF 393 = test system: RXF 393
OVCAR-4 = test system: OVCAR-4
M14 = test system: M14
HL-60 = test system: HL-60
LOX IMVI = test system: LOX IMVI
UO-31 = test system: UO-31
IGROV-1 = test system: IGROV-1
NCI-H460 = test system: NCI-H460
A498 = test system: A498
K562 = test system: K562
SNB-78 = test system: SNB-78
SF-295 = test system: SF-295
Malme-3M = test system: Malme-3M
CAKI-1 = test system: CAKI-1
NCI-H522 = test system: NCI-H522
OVCAR-8 = test system: OVCAR-8
HCT-116 = test system: HCT-116
SN12C = test system: SN12C
U-251 = test system: U-251
LXFL 529 = test system: LXFL 529
M19-MEL = test system: M19-MEL
XF498 = test system: XF498
ACHN = test system: ACHN
SNB-19 = test system: SNB-19
TK-10 = test system: TK-10
RPMI-8226 = test system: RPMI-8226
EKVX = test system: EKVX
DLD-1 = test system: DLD-1
SF-268 = test system: SF-268
HT-29 = test system: HT-29
A549 = test system: A549
CCRF-CEM = test system: CCRF-CEM
KM-20L2 = test system: KM-20L2
SK-MEL-2 = test system: SK-MEL-2
HCT-15 = test system: HCT-15
SF-539 = test system: SF-539
DMS-114 = test system: DMS-114
SK-MEL-5 = test system: SK-MEL-5
786-0 = test system: 786-0
COLO 205 = test system: COLO 205
OVCAR-3 = test system: OVCAR-3
OVCAR-5 = test system: OVCAR-5
UACC-257 = test system: UACC-257
NCI-H226 = test system: NCI-H226
SW-620 = test system: SW-620
UACC-62 = test system: UACC-62
HOP-62 = test system: HOP-62
HCC 2998 = test system: HCC 2998
SNB-75 = test system: SNB-75
SR = test system: SR
KM12 = test system: KM12

COc1cc(C2C(Cl)C(=O)N2NC(=O)c2ccc(NC(C)=O)cc2)ccc1O (stereo not drawn)
GI50 (DMS-273): > 100 µM (inactive) | GI50 (SK-OV-3): > 100 µM (inactive) | GI50 (HOP-92): > 100 µM (inactive) | GI50 (NCI-H23): > 100 µM (inactive) | GI50 (SK-MEL-28): > 100 µM (inactive) | GI50 (MOLT-4): > 100 µM (inactive) | GI50 (RXF 393): > 100 µM (inactive) | GI50 (OVCAR-4): > 100 µM (inactive) | GI50 (M14): > 100 µM (inactive) | GI50 (HL-60): > 100 µM (inactive) | GI50 (LOX IMVI): > 100 µM (inactive) | GI50 (UO-31): > 100 µM (inactive) | GI50 (IGROV-1): > 100 µM (inactive) | GI50 (NCI-H460): > 100 µM (inactive) | GI50 (A498): > 100 µM (inactive) | GI50 (K562): > 100 µM (inactive) | GI50 (SNB-78): > 100 µM (inactive) | GI50 (SF-295): > 100 µM (inactive) | GI50 (Malme-3M): > 100 µM (inactive) | GI50 (CAKI-1): > 100 µM (inactive) | GI50 (NCI-H522): > 100 µM (inactive) | GI50 (OVCAR-8): > 100 µM (inactive) | GI50 (HCT-116): > 100 µM (inactive) | GI50 (SN12C): > 100 µM (inactive) | GI50 (U-251): > 100 µM (inactive) | GI50 (LXFL 529): > 100 µM (inactive) | GI50 (M19-MEL): > 100 µM (inactive) | GI50 (XF498): > 100 µM (inactive) | GI50 (ACHN): > 100 µM (inactive) | GI50 (SNB-19): > 100 µM (inactive) | GI50 (TK-10): > 100 µM (inactive) | GI50 (RPMI-8226): > 100 µM (inactive) | GI50 (EKVX): > 100 µM (inactive) | GI50 (DLD-1): > 100 µM (inactive) | GI50 (SF-268): > 100 µM (inactive) | GI50 (HT-29): > 100 µM (inactive) | GI50 (A549): > 100 µM (inactive) | GI50 (CCRF-CEM): > 100 µM (inactive) | GI50 (KM-20L2): > 100 µM (inactive) | GI50 (SK-MEL-2): > 100 µM (inactive) | GI50 (HCT-15): > 100 µM | GI50 (SF-539): > 100 µM (inactive) | GI50 (DMS-114): > 100 µM (inactive) | GI50 (SK-MEL-5): > 100 µM (inactive) | GI50 (786-0): > 100 µM (inactive) | GI50 (COLO 205): > 100 µM (inactive) | GI50 (OVCAR-3): > 100 µM (inactive) | GI50 (OVCAR-5): > 100 µM (inactive) | GI50 (UACC-257): > 100 µM (inactive) | GI50 (NCI-H226): > 100 µM (inactive) | GI50 (SW-620): > 100 µM (inactive) | GI50 (UACC-62): > 100 µM (inactive) | GI50 (HOP-62): > 100 µM (inactive)

CC(C)OP(=O)(OC(C)C)/C(=N/Nc1ccc([N+](=O)[O-])cc1)Nc1ccccc1
GI50 (DMS-273): 25.3 µM (inactive) | GI50 (HOP-92): 17.5 µM (inactive) | GI50 (NCI-H23): 26.2 µM (inactive) | GI50 (SK-MEL-28): 23.9 µM (inactive) | GI50 (MOLT-4): 10.7 µM (inactive) | GI50 (OVCAR-4): 28.4 µM (inactive) | GI50 (M14): 20.2 µM (inactive) | GI50 (HL-60): 18.2 µM (inactive) | GI50 (LOX IMVI): 33.7 µM (inactive) | GI50 (UO-31): 77.3 µM (inactive) | GI50 (NCI-H460): 33 µM (inactive) | GI50 (A498): > 10 µM (inactive) | GI50 (K562): 21.1 µM (inactive) | GI50 (SNB-78): 17.5 µM (inactive) | GI50 (Malme-3M): 19.8 µM (inactive) | GI50 (CAKI-1): 34.7 µM (inactive) | GI50 (HCC 2998): 49.5 µM (inactive) | GI50 (SNB-75): 36.6 µM (inactive) | GI50 (NCI-H522): 17.9 µM (inactive) | GI50 (OVCAR-8): 34.8 µM (inactive) | GI50 (HCT-116): 16.4 µM (inactive) | GI50 (SN12C): 48.6 µM (inactive) | GI50 (U-251): 21.2 µM (inactive) | GI50 (LXFL 529): 19.5 µM (inactive) | GI50 (M19-MEL): 47.2 µM (inactive) | GI50 (XF498): 22.2 µM (inactive) | GI50 (ACHN): 24.8 µM (inactive) | GI50 (SNB-19): 36.7 µM (inactive) | GI50 (TK-10): 12.4 µM (inactive) | GI50 (RPMI-8226): 20.3 µM (inactive) | GI50 (EKVX): 35.1 µM (inactive) | GI50 (SR): 16.6 µM (inactive) | GI50 (KM12): 20.8 µM (inactive) | GI50 (DLD-1): 28.1 µM (inactive) | GI50 (SF-268): 25 µM (inactive) | GI50 (A549): 23.1 µM (inactive) | GI50 (CCRF-CEM): 18.4 µM (inactive) | GI50 (KM-20L2): 24.2 µM (inactive) | GI50 (SK-MEL-2): 40.1 µM (inactive) | GI50 (HCT-15): 32.4 µM | GI50 (SF-539): 33.9 µM (inactive) | GI50 (DMS-114): 20.4 µM (inactive) | GI50 (SK-MEL-5): 12.2 µM (inactive) | GI50 (786-0): 24.1 µM (inactive) | GI50 (COLO 205): 21.6 µM (inactive) | GI50 (OVCAR-3): 32.2 µM (inactive) | GI50 (OVCAR-5): > 100 µM (inactive) | GI50 (UACC-257): 21 µM (inactive) | GI50 (NCI-H226): 16.4 µM (inactive) | GI50 (SW-620): 33 µM (inactive) | GI50 (UACC-62): 10.8 µM (inactive) | GI50 (HOP-62): 29.7 µM (inactive)

CN(C)c1ccccc1CC(c1c[nH]c2ccccc12)c1c[nH]c2ccccc12
GI50 (DMS-273): 13 µM (inactive) | GI50 (SK-OV-3): 19.3 µM (inactive) | GI50 (NCI-H23): 6.85 µM (inactive) | GI50 (MOLT-4): 4.35 µM (inactive) | GI50 (RXF 393): 7.91 µM (inactive) | GI50 (OVCAR-4): 9.06 µM (inactive) | GI50 (M14): 11.4 µM (inactive) | GI50 (HL-60): 7.93 µM (inactive) | GI50 (LOX IMVI): 11.8 µM (inactive) | GI50 (UO-31): 10.9 µM (inactive) | GI50 (IGROV-1): 15.8 µM (inactive) | GI50 (NCI-H460): 4.72 µM (inactive) | GI50 (A498): 17.1 µM (inactive) | GI50 (K562): 10.7 µM (inactive) | GI50 (SNB-78): 14.4 µM (inactive) | GI50 (SF-295): 11.9 µM (inactive) | GI50 (Malme-3M): 17.1 µM (inactive) | GI50 (CAKI-1): 4.94 µM (inactive) | GI50 (HCC 2998): 9.46 µM (inactive) | GI50 (SNB-75): 10.3 µM (inactive) | GI50 (NCI-H522): 12.9 µM (inactive) | GI50 (OVCAR-8): 11.2 µM (inactive) | GI50 (HCT-116): 11.2 µM (inactive) | GI50 (SN12C): 3.1 µM (inactive) | GI50 (U-251): 12.1 µM (inactive) | GI50 (M19-MEL): 14.9 µM (inactive) | GI50 (XF498): 17.3 µM (inactive) | GI50 (ACHN): 8.36 µM (inactive) | GI50 (SNB-19): 14.4 µM (inactive) | GI50 (TK-10): 16.2 µM (inactive) | GI50 (EKVX): 5.38 µM (inactive) | GI50 (SR): 5.46 µM (inactive) | GI50 (KM12): 4.36 µM (inactive) | GI50 (DLD-1): 15.7 µM (inactive) | GI50 (SF-268): 14.8 µM (inactive) | GI50 (HT-29): 5.38 µM (inactive) | GI50 (A549): 10.2 µM (inactive) | GI50 (CCRF-CEM): 9.51 µM (inactive) | GI50 (KM-20L2): 10.7 µM (inactive) | GI50 (SK-MEL-2): 14.8 µM (inactive) | GI50 (HCT-15): 12.2 µM | GI50 (SF-539): 17.2 µM (inactive) | GI50 (DMS-114): 7.62 µM (inactive) | GI50 (SK-MEL-5): 15.3 µM (inactive) | GI50 (786-0): 12.8 µM (inactive) | GI50 (COLO 205): 2.82 µM (inactive) | GI50 (OVCAR-3): 12.8 µM (inactive) | GI50 (OVCAR-5): 16.9 µM (inactive) | GI50 (UACC-257): 16.2 µM (inactive) | GI50 (NCI-H226): 12.1 µM (inactive) | GI50 (SW-620): 6.7 µM (inactive) | GI50 (UACC-62): 14.2 µM (inactive) | GI50 (HOP-62): 6.62 µM (inactive)
